{
  "source": "patent US20210069351A1",
  "about": "“METHOD FOR SCREENING PAIN INHIBITING SUBSTANCE” (priority 2017, published 2021)",
  "key": {"[1]": {"test": "Stability of GABA and glutamate test samples under storage, treatment and analysis conditions", "assay_type": "physicochemical", "method": "The test samples were stored in a freezer at −70° C., and thawed at room temperature before use. 20 μL of microdialysate was added to 20 μL of acetonitrile, well mixed (vortexing, 30 sec) and centrifuged at 3,000 rpm for 5 minutes. A supernatant was taken and injected by 5 μL for LC-MS/MS analysis.\nStability was tested under various conditions for which GABA and a glutamate test sample could be exposed."}, "[2]": {"system": "β-endorphin", "test": "Neuropeptide and cytokine concentrations in spinal cord dorsal horn microdialysate after pregabalin", "assay_type": "in vivo, rat", "settings": "30 mg/kg pregabalin, neuropathic pain model and control", "text": "Spared nerve injury (SNI) models were used to assess the concentration of a pain indicator substance present in a dorsal horn in the spinal cord. To generate an efficient neuropathic pain model, the rats were anesthetized under 3% isoflurane (Hana Pharm., South Korea), after incision on the left hind of the rat leg the common peroneal and the tibial nerve of three peripheral nerve branches in the sciatic nerve were axotomized and the sural nerve was spared then the surgical site was closed (FIG. 1). After surgery, animals were placed in the home cage to recover. 2 weeks after surgery, hypersensitivity will occur in the lateral area of the rat left hind paw.\nBefore inserting microdialysis probe into the tissue, the probe was immersed in 70% ethanol and washed for 15 minutes at the flow rate of 3.5 ul/min. Then, the probe was immersed in distilled water and washed for 15 minutes in the same protocol. When the washing step was completed, the probe was inserted at a depth of approximately 2 mm into the dorsal horn of the L1 spinal cord (FIG. 4). […]\nFor analysis of the neuropeptide and cytokine of the test samples was used using “Luminex 200 multiplex system” by multiplex cytokines assay. Ten most important of pain-related neuropeptides such as IFN-gamma, IL-1 beta, IL-6, IL-10, TNF-α, MCP-1, MIP-1α, BDNF, substance P and β-endorphin and cytokines were analyzed using a total of 4 kits."}},
  "data": [
    {"compound": "NCCCC(=O)O", "note": "[GABA, γ-aminobutyric acid]", "values": [
      {"measurement": "Remaining, freeze/thaw", "setting": "[1]; 20 ng/mL", "value": 103.1, "unit": "%"},
      {"measurement": "Remaining, freeze/thaw", "setting": "[1]; 100 ng/mL", "value": 106.7, "unit": "%"},
      {"measurement": "Remaining, freeze/thaw", "setting": "[1]; 800 ng/mL", "value": 101.6, "unit": "%"},
      {"measurement": "Remaining, long term stability", "setting": "[1]; 1 month, 20 ng/mL", "value": 101.8, "unit": "%"},
      {"measurement": "Remaining, long term stability", "setting": "[1]; 1 month, 100 ng/mL", "value": 102.3, "unit": "%"},
      {"measurement": "Remaining, long term stability", "setting": "[1]; 1 month, 800 ng/mL", "value": 97.7, "unit": "%"},
      {"measurement": "Remaining, autosampler tray", "setting": "[1]; 6 h, 20 ng/mL", "value": 105.4, "unit": "%"},
      {"measurement": "Remaining, microdialysis sample at RT", "setting": "[1]; 6 h, 20 ng/mL", "value": 105.3, "unit": "%"},
      {"measurement": "Remaining, autosampler tray", "setting": "[1]; 6 h, 100 ng/mL", "value": 101.2, "unit": "%"},
      {"measurement": "Remaining, microdialysis sample at RT", "setting": "[1]; 6 h, 100 ng/mL", "value": 100.6, "unit": "%"},
      {"measurement": "Remaining, autosampler tray", "setting": "[1]; 6 h, 800 ng/mL", "value": 92.1, "unit": "%"},
      {"measurement": "Remaining, microdialysis sample at RT", "setting": "[1]; 6 h, 800 ng/mL", "value": 91.8, "unit": "%"}
    ]},
    {"compound": "N[C@@H](CCC(=O)O)C(=O)O", "note": "[Glutamate, glutamate]", "values": [
      {"measurement": "Remaining, freeze/thaw", "setting": "[1]; 3 cycles, 20 ng/mL", "value": 104.1, "unit": "%"},
      {"measurement": "Remaining, freeze/thaw", "setting": "[1]; 3 cycles, 100 ng/mL", "value": 100.8, "unit": "%"},
      {"measurement": "Remaining, freeze/thaw", "setting": "[1]; 3 cycles, 800 ng/mL", "value": 101.9, "unit": "%"},
      {"measurement": "Remaining, autosampler tray", "setting": "[1]; 4° C. for 6 h, 20 ng/mL", "value": 106.5, "unit": "%"},
      {"measurement": "Remaining, autosampler tray", "setting": "[1]; 4° C. for 6 h, 100 ng/mL", "value": 102.3, "unit": "%"},
      {"measurement": "Remaining, autosampler tray", "setting": "[1]; 4° C. for 6 h, 800 ng/mL", "value": 101.1, "unit": "%"},
      {"measurement": "Remaining, microdialysis sample at RT", "setting": "[1]; RT for 6 h, 20 ng/mL", "value": 101.3, "unit": "%"},
      {"measurement": "Remaining, microdialysis sample at RT", "setting": "[1]; RT for 6 h, 100 ng/mL", "value": 97.3, "unit": "%"},
      {"measurement": "Remaining, microdialysis sample at RT", "setting": "[1]; RT for 6 h, 800 ng/mL", "value": 99.8, "unit": "%"},
      {"measurement": "Remaining, long term stability", "setting": "[1]; −70° C. 1 month, 20 ng/mL", "value": 104.2, "unit": "%"},
      {"measurement": "Remaining, long term stability", "setting": "[1]; −70° C. 1 month, 100 ng/mL", "value": 98.6, "unit": "%"},
      {"measurement": "Remaining, long term stability", "setting": "[1]; −70° C. 1 month, 800 ng/mL", "value": 96.0, "unit": "%"}
    ]},
    {"compound": "CC(C)C[C@H](CN)CC(=O)O", "note": "[pregabalin]", "values": [
      {"measurement": "concentrations of β-endorphin in microdialysate", "setting": "[2]", "value": "significantly increased and then decreased"}
    ]}
  ]
}
